Reference: patent US12655120B2, “GPR52 modulator compounds” (NXERA PHARMA UK LIMITED, priority 2020, dated 2026)

Biological target: T1, human GPR52 (Homo sapiens, UniProt Q9Y2T5)
T1 construct: expressed in transfected cells; host or cells: HEKf suspension cells infected with BacMam virus
Experiment: GPR52 Agonist Functional cAMP Assay
Type: cell-based
Details: for EC50: HEKf cells infected with human GPR52 BacMam, HTRF cAMP, 30 min at 37° C., read-out: pEC50 average (converted); for Emax: normalised to DMSO (0%) and maximal compound 7m (J. Med. Chem., 2014, 57, 5226) response (100%)
Experimental: HEKf suspension cells were infected for 24 h with 0.1% v/v human GPR52 expressing BacMam virus, a modified baculovirus designed for mammalian gene expression. Following BacMam infection, cells were pelleted by centrifugation (335 g, 5 min), resuspended in cell freezing medium (Sigma) and frozen at −150° C. until required. On experiment day, 25 nL GPR52 compound dilutions, prepared in DMSO, were stamped onto proxiplates (PerkinElmer) by a LabCyte ECHO acoustic dispenser. Frozen cells were thawed and resuspended in assay stimulation buffer (Cisbio) containing 0.5 mM 3-iso-butyl-1-methylxanthine (IBMX, Sigma) to achieve a density of 2000 cells per well. 10 μl cells were added to assay plates using a Multidrop Combi Reagent Dispenser (ThermoFisher) before centrifugation (335 g, 1 min). Cells were incubated with compounds at 37° C. for 30 min prior to addition of cAMP detection reagents (HiRange cAMP kit, Cisbio) which were prepared according to the manufacturer's instructions. Plates were shaken for 1 h at room temperature before reading on a PHERAstar FS plate reader (BMG Labtech) using standard HTRF settings. HTRF ratios were obtained by dividing the acceptor emissions (665 nm) by the donor emissions (620 nm) and multiplying by 10,000.

T1 sequence (Q9Y2T5 whole entry): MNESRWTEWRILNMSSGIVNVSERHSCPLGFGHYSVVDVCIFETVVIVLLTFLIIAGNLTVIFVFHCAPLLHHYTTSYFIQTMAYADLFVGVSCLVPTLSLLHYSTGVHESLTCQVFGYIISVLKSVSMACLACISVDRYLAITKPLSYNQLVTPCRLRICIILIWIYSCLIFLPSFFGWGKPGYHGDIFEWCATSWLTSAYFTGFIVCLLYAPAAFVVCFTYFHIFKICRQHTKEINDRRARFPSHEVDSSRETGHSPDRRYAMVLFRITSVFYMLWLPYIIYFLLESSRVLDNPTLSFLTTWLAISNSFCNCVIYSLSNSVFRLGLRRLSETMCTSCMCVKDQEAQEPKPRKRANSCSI

EC50 [nM] | Emax [%] | Compound
79.4 | 96 | Cc1nn(-c2cc(Cc3cc(F)cc(C(F)F)c3)ccn2)cc1C(N)=O [Example 37, 1-(4-(3-(difluoromethyl)-5-fluorobenzyl)pyridin-2-yl)-3-methyl-1H-pyrazole-4-carboxamide]
20 | 93 | NC(=O)c1ccn(-c2cc(Cc3cc(F)cc(C(F)F)c3)ccn2)n1 [Example 38, 1-(4-(3-(difluoromethyl)-5-fluorobenzyl)pyridin-2-yl)-1H-pyrazole-3-carboxamide]
 | 101 | Cc1nn(-c2cc(Cc3cc(F)cc(C(F)(F)F)c3)ccn2)c(CO)c1C(=O)NCCO [Example 40, 1-(4-(3-fluoro-5-(trifluoromethyl)benzyl)pyridin-2-yl)-N-(2-hydroxyethyl)-5-(hydroxymethyl)-3-methyl-1H-pyrazole-4-carboxamide]
 | 98 | Cc1nn(-c2ccnc(Cc3cc(F)cc(C(F)(F)F)c3)c2)c(CO)c1C(N)=O [Example 41, 1-(2-(3-fluoro-5-(trifluoromethyl)benzyl)pyridin-4-yl)-5-(hydroxymethyl)-3-methyl-1H-pyrazole-4-carboxamide]
 | 100 | Cc1nn(-c2ccnc(Cc3cc(F)cc(C(F)(F)F)c3)c2)c(CO)c1C(=O)NCCO [Example 42, 1-(2-(3-fluoro-5-(trifluoromethyl)benzyl)pyridin-4-yl)-N-(2-hydroxyethyl)-5-(hydroxymethyl)-3-methyl-1H-pyrazole-4-carboxamide]
 | 101 | CNC(=O)c1c(C)nn(-c2cc(Cc3cc(F)cc(C(F)(F)F)c3)ccn2)c1CO [Example 43, 1-(4-(3-fluoro-5-(trifluoromethyl)benzyl)pyridin-2-yl)-5-(hydroxymethyl)-N,3-dimethyl-1H-pyrazole-4-carboxamide]
 | 101 | Cc1nn(-c2cc(Cc3cc(F)cc(C(F)F)c3)ccn2)c(CO)c1C(N)=O [Example 44, 1-(4-(3-(difluoromethyl)-5-fluorobenzyl)pyridin-2-yl)-5-(hydroxymethyl)-3-methyl-1H-pyrazole-4-carboxamide]
200 | 91 | CNC(=O)c1cn(-c2cc(Cc3cc(F)cc(C(F)F)c3)ccn2)nc1C [Example 45, 1-(4-(3-(difluoromethyl)-5-fluorobenzyl)pyridin-2-yl)-N,3-dimethyl-1H-pyrazole-4-carboxamide]
50.1 | 88 | CNC(=O)c1ccn(-c2cc(Cc3cc(F)cc(C(F)F)c3)ccn2)n1 [Example 46, 1-(4-(3-(difluoromethyl)-5-fluorobenzyl)pyridin-2-yl)-N-methyl-1H-pyrazole-3-carboxamide]
63.1 | 93 | NC(=O)c1nn(-c2cc(Cc3cc(F)cc(C(F)(F)F)c3)ccn2)cc1CO [Example 49, 1-(4-(3-fluoro-5-(trifluoromethyl)benzyl)pyridin-2-yl)-4-(hydroxymethyl)-1H-pyrazole-3-carboxamide]
79.4 | 97 | Cc1c(C(N)=O)c(CO)nn1-c1cc(Cc2cc(F)cc(C(F)(F)F)c2)ccn1 [Example 53, 1-(4-(3-fluoro-5-(trifluoromethyl)benzyl)pyridin-2-yl)-3-(hydroxymethyl)-5-methyl-1H-pyrazole-4-carboxamide]
79.4 | 92 | NC(=O)c1cc(CO)n(-c2cc(Cc3cc(F)cc(C(F)(F)F)c3)ccn2)n1 [Example 54, 1-(4-(3-fluoro-5-(trifluoromethyl)benzyl)pyridin-2-yl)-5-(hydroxymethyl)-1H-pyrazole-3-carboxamide]

More lines, now with the values behind:

Compound | EC50 [nM] | Emax [%]
O=C(c1ccn(-c2cc(Cc3cc(F)cc(C(F)(F)F)c3)ccn2)n1)N1CCCC1 [Example 33, (1-(4-(3-fluoro-5-(trifluoromethyl)benzyl)pyridin-2-yl)-1H-pyrazol-3-yl)(pyrrolidin-1-yl)methanone] | 126 | 87
O=C(NC1COC1)c1ccn(-c2cc(Cc3cc(F)cc(C(F)(F)F)c3)ccn2)n1 [Example 34, 1-(4-(3-fluoro-5-(trifluoromethyl)benzyl)pyridin-2-yl)-N-(oxetan-3-yl)-1H-pyrazole-3-carboxamide] | 631 | 77
O=C(NCCO)c1ccn(-c2cc(Cc3cc(F)cc(C(F)(F)F)c3)ccn2)n1 [Example 35, 1-(4-(3-fluoro-5-(trifluoromethyl)benzyl)pyridin-2-yl)-N-(2-hydroxyethyl)-1H-pyrazole-3-carboxamide] | 398 | 83
COCCNC(=O)c1ccn(-c2cc(Cc3cc(F)cc(C(F)(F)F)c3)ccn2)n1 [Example 36, 1-(4-(3-fluoro-5-(trifluoromethyl)benzyl)pyridin-2-yl)-N-(2-methoxyethyl)-1H-pyrazole-3-carboxamide] | 126 | 87
NC(=O)c1cn(-c2cccc(Cc3cc(F)cc(C(F)(F)F)c3)n2)nc1CO [Example 47, 1-(6-(3-fluoro-5-(trifluoromethyl)benzyl)pyridin-2-yl)-3-(hydroxymethyl)-1H-pyrazole-4-carboxamide] | 501 | 52
CNC(=O)c1cn(-c2cccc(Cc3cc(F)cc(C(F)(F)F)c3)n2)nc1CO [Example 48, 1-(6-(3-fluoro-5-(trifluoromethyl)benzyl)pyridin-2-yl)-3-(hydroxymethyl)-N-methyl-1H-pyrazole-4-carboxamide] | 1580 | 36
CNC(=O)c1nn(-c2cc(Cc3cc(F)cc(C(F)(F)F)c3)ccn2)cc1CO [Example 50, 1-(4-(3-fluoro-5-(trifluoromethyl)benzyl)pyridin-2-yl)-4-(hydroxymethyl)-N-methyl-1H-pyrazole-3-carboxamide] | 10 | 82
NC(=O)c1nn(-c2cccc(Cc3cc(F)cc(C(F)(F)F)c3)n2)cc1CO [Example 51, 1-(6-(3-fluoro-5-(trifluoromethyl)benzyl)pyridin-2-yl)-4-(hydroxymethyl)-1H-pyrazole-3-carboxamide] | 501 | 83
Cc1cnc(Cc2cc(F)cc(C(F)(F)F)c2)cc1-n1cc(C(N)=O)c(C)n1 [Example 52, 1-(2-(3-fluoro-5-(trifluoromethyl)benzyl)-5-methylpyridin-4-yl)-3-methyl-1H-pyrazole-4-carboxamide] | 100 | 100
CNC(=O)c1ccn(-c2ccnc(Cc3cc(F)cc(C(F)(F)F)c3)c2)n1 [Example 55, 1-(2-(3-fluoro-5-(trifluoromethyl)benzyl)pyridin-4-yl)-N-methyl-1H-pyrazole-3-carboxamide] | 126 | 83
CNC(=O)c1cnn(-c2cc(Cc3cc(F)cc(C(F)(F)F)c3)ccn2)n1 [Example 56, 2-(4-(3-fluoro-5-(trifluoromethyl)benzyl)pyridin-2-yl)-N-methyl-2H-1,2,3-triazole-4-carboxamide] | 100 | 84
CNC(=O)c1nn(-c2cc(Cc3cc(F)cc(C(F)(F)F)c3)ccn2)cc1C [Example 57, 1-(4-(3-fluoro-5-(trifluoromethyl)benzyl)pyridin-2-yl)-N,4-dimethyl-1H-pyrazole-3-carboxamide] | 3.16 | 87
CNC(=O)c1nn(-c2cc(Cc3cc(F)cc(C(F)(F)F)c3)ccn2)nc1C [Example 58, 2-(4-(3-fluoro-5-(trifluoromethyl)benzyl)pyridin-2-yl)-N,5-dimethyl-2H-1,2,3-triazole-4-carboxamide] | 15.8 | 92
Cc1nn(-c2ccnc(C(O)c3cc(F)cc(C(F)(F)F)c3)c2)cc1C(N)=O (centres unmarked) [Example 59, 1-(2-((3-fluoro-5-(trifluoromethyl)phenyl)(hydroxy)methyl)pyridin-4-yl)-3-methyl-1H-pyrazole-4-carboxamide] | 200 | 79
